Assay: Effect of solvent on the stability of the solution (purity at various pH values and temperature)
Type: physicochemical
Conditions: 7% solution

## CCN(CC)CCOC(=O)c1ccccc1OC(C)=O.Cl
Solvent 25% ethanol, pH 8.0, day 14, 60° C.
  Purity (%) at day 14 (60° C.): 0%
Solvent 50% ethanol, pH 1.0, day 0
  Purity(%) at day 0: 99.2 ± 0.3%
Solvent 50% ethanol, pH 1.0, day 14, 5° C.
  Purity(%) at day 14 (5° C.): 92.4 ± 0.3%
Solvent 50% ethanol, pH 1.0, day 14, 25° C.
  Purity(%) at day 14 (25° C.): 63.8 ± 0.4%
Solvent 50% ethanol, pH 1.0, day 14, 40° C.
  Purity(%) at day 14 (40° C.): 0%
Solvent 50% ethanol, pH 1.0, day 14, 60° C.
  Purity (%) at day 14 (60° C.): 0%
Solvent 50% ethanol, pH 2.0, day 0
  Purity(%) at day 0: 99.5 ± 0.2%
Solvent 50% ethanol, pH 2.0, day 14, 5° C.
  Purity(%) at day 14 (5° C.): 96.9 ± 0.3%
Solvent 50% ethanol, pH 2.0, day 14, 25° C.
  Purity(%) at day 14 (25° C.): 84.7 ± 0.3%
Solvent 50% ethanol, pH 2.0, day 14, 40° C.
  Purity(%) at day 14 (40° C.): 0%
Solvent 50% ethanol, pH 2.0, day 14, 60° C.
  Purity (%) at day 14 (60° C.): 0%
Solvent 50% ethanol, pH 3.0, day 0
  Purity(%) at day 0: 99.6 ± 0.3%
Solvent 50% ethanol, pH 3.0, day 14, 25° C.
  Purity(%) at day 14 (25° C.): 89.5 ± 0.3%
Solvent 50% ethanol, pH 3.0, day 14, 40° C.
  Purity(%) at day 14 (40° C.): 3.2 ± 0.3%
Solvent 50% ethanol, pH 3.0, day 14, 60° C.
  Purity (%) at day 14 (60° C.): 0%
Solvent 50% ethanol, pH 3.7, day 0
  Purity(%) at day 0: 99.7 ± 0.2%
Solvent 50% ethanol, pH 3.7, day 14, 5° C.
  Purity(%) at day 14 (5° C.): 99.1 ± 0.3%
Solvent 50% ethanol, pH 3.7, day 14, 25° C.
  Purity(%) at day 14 (25° C.): 96.6 ± 0.2%
Solvent 50% ethanol, pH 3.7, day 14, 40° C.
  Purity(%) at day 14 (40° C.): 16.9 ± 0.3%
Solvent 50% ethanol, pH 3.7, day 14, 60° C.
  Purity (%) at day 14 (60° C.): 0%
Solvent 50% ethanol, pH 4.0, day 0
  Purity(%) at day 0: 99.8 ± 0.2%
Solvent 50% ethanol, pH 4.0, day 14, 5° C.
  Purity(%) at day 14 (5° C.): 99.2 ± 0.3%
Solvent 50% ethanol, pH 4.0, day 14, 25° C.
  Purity(%) at day 14 (25° C.): 97.2 ± 0.3%
Solvent 50% ethanol, pH 4.0, day 14, 40° C.
  Purity(%) at day 14 (40° C.): 16.8 ± 0.4%
Solvent 50% ethanol, pH 4.0, day 14, 60° C.
  Purity (%) at day 14 (60° C.): 0%
Solvent 50% ethanol, pH 4.3, day 0
  Purity(%) at day 0: 99.7 ± 0.2%
Solvent 50% ethanol, pH 4.3, day 14, 5° C.
  Purity(%) at day 14 (5° C.): 99.1 ± 0.2%
Solvent 50% ethanol, pH 4.3, day 14, 25° C.
  Purity(%) at day 14 (25° C.): 97.2 ± 0.2%
Solvent 50% ethanol, pH 4.3, day 14, 40° C.
  Purity(%) at day 14 (40° C.): 14.9 ± 0.3%
Solvent 50% ethanol, pH 4.3, day 14, 60° C.
  Purity (%) at day 14 (60° C.): 0%
Solvent 50% ethanol, pH 4.6, day 0
  Purity(%) at day 0: 99.7 ± 0.3%
Solvent 50% ethanol, pH 4.6, day 14, 25° C.
  Purity(%) at day 14 (25° C.): 96.9 ± 0.3%
Solvent 50% ethanol, pH 4.6, day 14, 40° C.
  Purity(%) at day 14 (40° C.): 4.9 ± 0.3%
Solvent 50% ethanol, pH 4.6, day 14, 60° C.
  Purity (%) at day 14 (60° C.): 0%
Solvent 50% ethanol, pH 5.0, day 0
  Purity(%) at day 0: 99.6 ± 0.2%
Solvent 50% ethanol, pH 5.0, day 14, 25° C.
  Purity(%) at day 14 (25° C.): 93.1 ± 0.3%
Solvent 50% ethanol, pH 5.0, day 14, 40° C.
  Purity(%) at day 14 (40° C.): 2.3 ± 0.2%
Solvent 50% ethanol, pH 5.0, day 14, 60° C.
  Purity (%) at day 14 (60° C.): 0%
Solvent 50% ethanol, pH 6.0, day 0
  Purity(%) at day 0: 99.5 ± 0.3%
Solvent 50% ethanol, pH 6.0, day 14, 5° C.
  Purity(%) at day 14 (5° C.): 92.9 ± 0.4%
Solvent 50% ethanol, pH 6.0, day 14, 25° C.
  Purity(%) at day 14 (25° C.): 85.5 ± 0.3%
Solvent 50% ethanol, pH 6.0, day 14, 40° C.
  Purity(%) at day 14 (40° C.): 0%
Solvent 50% ethanol, pH 6.0, day 14, 60° C.
  Purity (%) at day 14 (60° C.): 0%
Solvent 50% ethanol, pH 7.0, day 0
  Purity(%) at day 0: 99.4 ± 0.3%
Solvent 50% ethanol, pH 7.0, day 14, 5° C.
  Purity(%) at day 14 (5° C.): 88.2 ± 0.3%
Solvent 50% ethanol, pH 7.0, day 14, 25° C.
  Purity(%) at day 14 (25° C.): 61.9 ± 0.4%
Solvent 50% ethanol, pH 7.0, day 14, 40° C.
  Purity(%) at day 14 (40° C.): 0%
Solvent 50% ethanol, pH 7.0, day 14, 60° C.
  Purity (%) at day 14 (60° C.): 0%
Solvent 50% ethanol, pH 8.0, day 0
  Purity(%) at day 0: 99.2 ± 0.3%
Solvent 50% ethanol, pH 8.0, day 14, 5° C.
  Purity(%) at day 14 (5° C.): 60.3 ± 0.4%
Solvent 50% ethanol, pH 8.0, day 14, 25° C.
  Purity(%) at day 14 (25° C.): 23.9 ± 0.4%
Solvent 50% ethanol, pH 8.0, day 14, 40° C.
  Purity(%) at day 14 (40° C.): 0%
Solvent 50% ethanol, pH 8.0, day 14, 60° C.
  Purity (%) at day 14 (60° C.): 0%
Solvent water, pH 1.0, day 0
  Purity(%) at day 0: 99.1 ± 0.3%
Solvent water, pH 1.0, day 14, 5° C.
  Purity(%) at day 14 (5° C.): 90.8 ± 0.3%
Solvent water, pH 1.0, day 14, 25° C.
  Purity(%) at day 14 (25° C.): 62.2 ± 0.4%
Solvent water, pH 1.0, day 14, 40° C.
  Purity(%) at day 14 (40° C.): 0%
Solvent water, pH 1.0, day 14, 60° C.
  Purity (%) at day 14 (60° C.): 0%
Solvent water, pH 2.0, day 0
  Purity(%) at day 0: 99.3 ± 0.2%
Solvent water, pH 2.0, day 14, 5° C.
  Purity(%) at day 14 (5° C.): 96.3 ± 0.2%
Solvent water, pH 2.0, day 14, 25° C.
  Purity(%) at day 14 (25° C.): 83.3 ± 0.3%
Solvent water, pH 2.0, day 14, 40° C.
  Purity(%) at day 14 (40° C.): 0%
Solvent water, pH 2.0, day 14, 60° C.
  Purity (%) at day 14 (60° C.): 0%
Solvent water, pH 3.0, day 0
  Purity(%) at day 0: 99.5 ± 0.2%
Solvent water, pH 3.0, day 14, 25° C.
  Purity(%) at day 14 (25° C.): 88.5 ± 0.2%
Solvent water, pH 3.0, day 14, 40° C.
  Purity(%) at day 14 (40° C.): 2.5 ± 0.2%
Solvent water, pH 3.0, day 14, 60° C.
  Purity (%) at day 14 (60° C.): 0%
Solvent water, pH 3.7, day 0
  Purity(%) at day 0: 99.5 ± 0.1%
Solvent water, pH 3.7, day 14, 25° C.
  Purity(%) at day 14 (25° C.): 96.1 ± 0.1%
Solvent water, pH 3.7, day 14, 40° C.
  Purity(%) at day 14 (40° C.): 14.5 ± 0.3%
Solvent water, pH 3.7, day 14, 60° C.
  Purity (%) at day 14 (60° C.): 0%
Solvent water, pH 4.0, day 0
  Purity(%) at day 0: 99.6 ± 0.1%
Solvent water, pH 4.0, day 14, 25° C.
  Purity(%) at day 14 (25° C.): 96.6 ± 0.2%
Solvent water, pH 4.0, day 14, 40° C.
  Purity(%) at day 14 (40° C.): 14.5 ± 0.3%
Solvent water, pH 4.0, day 14, 60° C.
  Purity (%) at day 14 (60° C.): 0%
Solvent water, pH 4.3, day 0
  Purity(%) at day 0: 99.7 ± 0.1%
Solvent water, pH 4.3, day 14, 25° C.
  Purity(%) at day 14 (25° C.): 96.6 ± 0.1%
Solvent water, pH 4.3, day 14, 40° C.
  Purity(%) at day 14 (40° C.): 12.9 ± 0.2%
Solvent water, pH 4.3, day 14, 60° C.
  Purity (%) at day 14 (60° C.): 0%
Solvent water, pH 4.6, day 0
  Purity(%) at day 0: 99.5 ± 0.2%
Solvent water, pH 4.6, day 14, 25° C.
  Purity(%) at day 14 (25° C.): 96.5 ± 0.2%
Solvent water, pH 4.6, day 14, 40° C.
  Purity(%) at day 14 (40° C.): 3.6 ± 0.2%
Solvent water, pH 4.6, day 14, 60° C.
  Purity (%) at day 14 (60° C.): 0%
Solvent water, pH 5.0, day 0
  Purity(%) at day 0: 99.5 ± 0.1%
Solvent water, pH 5.0, day 14, 5° C.
  Purity(%) at day 14 (5° C.): 97.3 ± 0.1%
Solvent water, pH 5.0, day 14, 25° C.
  Purity(%) at day 14 (25° C.): 92.5 ± 0.2%
Solvent water, pH 5.0, day 14, 40° C.
  Purity(%) at day 14 (40° C.): 1.0%
Solvent water, pH 5.0, day 14, 60° C.
  Purity (%) at day 14 (60° C.): 0%
Solvent water, pH 6.0, day 0
  Purity(%) at day 0: 99.4 ± 0.3%
Solvent water, pH 6.0, day 14, 5° C.
  Purity(%) at day 14 (5° C.): 92.1 ± 0.2%
Solvent water, pH 6.0, day 14, 25° C.
  Purity(%) at day 14 (25° C.): 84.7 ± 0.3%
Solvent water, pH 6.0, day 14, 40° C.
  Purity(%) at day 14 (40° C.): 0%
Solvent water, pH 6.0, day 14, 60° C.
  Purity (%) at day 14 (60° C.): 0%
Solvent water, pH 7.0, day 0
  Purity(%) at day 0: 99.2 ± 0.3%
Solvent water, pH 7.0, day 14, 5° C.
  Purity(%) at day 14 (5° C.): 87.9 ± 0.3%
Solvent water, pH 7.0, day 14, 25° C.
  Purity(%) at day 14 (25° C.): 59.8 ± 0.3%
Solvent water, pH 7.0, day 14, 40° C.
  Purity(%) at day 14 (40° C.): 0%
Solvent water, pH 7.0, day 14, 60° C.
  Purity (%) at day 14 (60° C.): 0%
Solvent water, pH 8.0, day 14, 5° C.
  Purity(%) at day 14 (5° C.): 57.9 ± 0.3%
Solvent water, pH 8.0, day 14, 25° C.
  Purity(%) at day 14 (25° C.): 21.7 ± 0.4%
Solvent water, pH 8.0, day 14, 40° C.
  Purity(%) at day 14 (40° C.): 0%
Solvent water, pH 8.0, day 14, 60° C.
  Purity (%) at day 14 (60° C.): 0%

Source: patent publication US20230157952A1, “METHOD FOR IMPROVING THE STABILITY OF A PHARMACEUTICAL COMPOSITION COMPRISING A HIGH PENETRATION DRUG, AND THE PHARMACEUTICAL COMPOSITION OBTAINED THEREFROM” (Techfields Inc., priority 2020, published 2023)
